From patent US20260256764A1, “COMPOSITIONS AND METHODS FOR ORAL DELIVERY OF SUSTAINED RELEASE CRYSTALLINE PRX-3140” (NANOPHARMACEUTICS, INC., priority 2023, published 2026)

Legend:
[1] = test system: more than 50 other receptors including GPCRs, ion channels and receptor tyrosine kinases; test: binding to other receptors tested
Text: . The specific ligand binding to the receptors is defined as the difference between the total binding and the nonspecific binding determined in the presence of an excess of unlabelled ligand. […]

[2] = Photostability study (ICH Q1B), HPLC; format: physicochemical
Procedure: […]. Samples were exposed to ICH photostability guideline Q1B=1.2 million lux hours of cool, white fluorescent light & 200 watt hours/m2 of UVA light at […]. Samples were exposed for 2 days and tested using HPLC.
[…]. The light exposure was performed in a cabinet set at 25 degrees Celsius/60% RH.
[…]. Changes were evident for crystalline fine particle Form I of PRX-3140 potassium salt after exposure to UVA and white light. The sample changed color particularly on the upper exposed surface of the material and there were changes apparent in the HPLC data. […]. The single impurity profile met the specification (0.20) but significant changes were observed. There was an increase in the number of minor impurities, particularly in a region of the chromatogram between RRT 1.5 and 2.1. Total impurities increased from 0.20% in the control sample to 0.770 in the exposed sample. An impurity at RRT 1.83 which was not present before exposure to light was formed at 0.16% in the exposed sample. Other changes included a change in appearance of the material to a sticky solid and an increase in water content to 4.3% w/w.

[3] = Forced degradation study (acid, base, 3% hydrogen peroxide), LC-UV-MS; format: physicochemical; conditions: 24 hours; for percent peak area at 250 nm, RRT 1.00 (purity of parent molecule) / percent peak area at 250 nm, RRT 1.05 (PRX-3140b): potassium salt
Procedure: Example 4—Crystalline PRX-3140 Potassium Salt Forced Degradation Study. Crystalline fine particle Form I of PRX-3140 potassium salt was subjected to a forced degradation study using acid, base, or hydrogen peroxide exposure for 24 hours. Samples were neutralized and analyzed using LC-UV-MS.
Sample Preparation: Crystalline fine particle Form I of PRX-3140 potassium salt, 50 mg, was weighed out into a 25 mL volumetric flask and taken to volume with water (2 mg/mL stock). One mL of stock was added to four, 4 mL vials. One mL of either 1N HCl, 1N NaOH, 3% H2O2, or DI Water (control) was added to the appropriate vial, mixed, and stored at room temperature for 24 hours. After storage, the samples of acid and base were neutralized by addition of 1 mL their counter solution. […] Samples were analyzed using LC-UV-MS.
Table 5 lists a comparison for the control, acid, base, and peroxide samples showing percent peak area versus relative retention time (RRT) at 250 nm. While some minor changes can be noted between the control with the acid and base samples, the overall purity (peak area) of the parent molecule is just slightly higher for the acid and base sample. Some of the minor impurities appear to be reacting with the acid or base, potentially reforming to the parent.

[4] = 30% peroxide degradation study; format: physicochemical; conditions: 18-hour exposure to 30% hydrogen peroxide; 250 nm
Procedure: […]. Sample was evaporated to dryness and analyzed using LC/UV/MS and NMR analysis. Two major degradants are noted in the LC/UV/MS.
[…]. The solvent is removed under vacuum at RT, then acetonitrile (5 mL) was added to the residue and evaporated to dryness at 40 degrees Celsius. […].
Two milligrams of the sample was weighed into a 4 mL vial. Two mL of 20/80 methanol/water was added to the vial and vortexed vigorously. FIG. 9A is a HPLC chromatogram of the H2O2 sample at 250 nm. Three major peaks are noted, including the parent molecule at 12.5 minutes. […]. Maximums are noted at 220, 250, and 320 nm. Chromatograms for all samples were collected at all three wavelengths with 250 nm as the primary wavelength based on lambda max. FIG. 10A is the UV spectra for the peak at 8.9 minutes. In comparison with the parent molecule, the high-end absorption is absent (320 nm). FIG. 10B is the UV spectra for the peak at 12.9 minutes. […]. An [M+H]+ is noted at 258.0 m/z with [M+H+NH3]+ at 275.1, [M+Na]+ at 280.1, and [2M+Na]+ at 537.1 m/z. It is noted that this is a fragile molecule and required the reduction of the Fragmentor Voltage from 150V down to 70V to see the protonated molecular ion. […] FIG. 11C is the mass spectra of the largest degradation product of PRX-3140b at 12.9 minutes, relative retention time (RRT) of 1.04 (compared to 1.05 in Example 4). […]

[5] = test system: blood glucose; test: Blood glucose levels after oral PRX-3140 potassium salt; format: in vivo, human; conditions: 15 mg orally, single dose, fed conditions, male volunteers
Procedure: Example 18—Blood Glucose Levels of Controls vs. Sustained-Release Oral PRX-3140 Potassium Salt Capsules. A Phase I, single dose escalation study under fed conditions was conducted in male volunteers with PRX-3140 potassium salt at the 15 mg dose level. […] The study was also conducted to examine the effects of PRX-3140 sustained-release capsule administration on the subjects' fasting and postprandial blood glucose concentrations. Subjects were monitored daily for vital signs (including blood pressure, heart rate, respiratory rate, and temperature) and adverse events. In addition, blood was drawn to assess glucose concentration. Glucose was tested within 60 minutes prior to meals in the morning and throughout the day at different timepoints.

[6] = Acid (1N HCl), listed as PRX-3140 Potassium Salt
[7] = Acid (1N HCl), listed as PRX-3140 potassium salt
[8] = Base (1N NaOH), listed as PRX-3140 Potassium Salt
[9] = Base (1N NaOH), listed as PRX-3140 potassium salt
[10] = Control (DI Water), listed as PRX-3140 Potassium Salt
[11] = Control (DI Water), listed as PRX-3140 potassium salt
[12] = H2O2 (3%), listed as PRX-3140 Potassium Salt
[13] = H2O2 (3%), listed as PRX-3140 potassium salt

CC(C)n1c(=O)c(C(=O)NCCCN2CCCCC2)c([O-])c2ccsc21.[K+] [PRX-3140, 6,7-Dihydro-4-hydroxy-7-isopropyl-6-oxo-N-(3-(piperidin-1-yl)propyl)thieno[2,3-b]pyridine-5-carboxamide potassium salt]
affinity for more than 50 other receptors tested [1]: no significant affinity
assay value ([2]; Exposed Sample (ICH Q1B light, 2 days)): 94.20 % w/w
Water Content - KF ([2]; t = 0, listed as PRX-3140 potassium salt, potassium salt): 0.900 % w/w
percent peak area at 250 nm, RRT 0.99 ([3]; Acid (1N HCl)): 0.07%
percent peak area at 250 nm, RRT 1.08 ([3]; Acid (1N HCl)): 0.11%
percent peak area at 250 nm, RRT 1.11 ([3]; Acid (1N HCl)): 0.04%
percent peak area at 250 nm, RRT 1.27 ([3]; Acid (1N HCl)): 0.04%
percent peak area at 250 nm, RRT 1.34 ([3]; Acid (1N HCl)): 0.15%
percent peak area at 250 nm, RRT 1.53 ([3]; Acid (1N HCl)): 0.43%
percent peak area at 250 nm, RRT 1.79 ([3]; Acid (1N HCl)): 0.04%
percent peak area at 250 nm, RRT 2.51 ([3]; Acid (1N HCl)): 0.06%
percent peak area at 250 nm, RRT 2.70 ([3]; Acid (1N HCl)): 0.13%
percent peak area at 250 nm, RRT 1.00 (purity of parent molecule) [3, 6]: 98.94%
percent peak area at 250 nm, RRT 1.05 (PRX-3140b) [3, 6]: <0.03%
percent peak area at 250 nm, RRT 1.00 (purity of parent molecule) [3, 7]: 98.9%
percent peak area at 250 nm, RRT 1.05 (PRX-3140b) [3, 7]: < 0.03%
percent peak area at 250 nm, RRT 0.94 ([3]; Base (1N NaOH)): 0.28%
percent peak area at 250 nm, RRT 1.08 ([3]; Base (1N NaOH)): 0.12%
percent peak area at 250 nm, RRT 1.34 ([3]; Base (1N NaOH)): 0.16%
percent peak area at 250 nm, RRT 1.53 ([3]; Base (1N NaOH)): 0.42%
percent peak area at 250 nm, RRT 1.79 ([3]; Base (1N NaOH)): 0.05%
percent peak area at 250 nm, RRT 2.51 ([3]; Base (1N NaOH)): 0.05%
percent peak area at 250 nm, RRT 2.70 ([3]; Base (1N NaOH)): 0.12%
percent peak area at 250 nm, RRT 1.00 (purity of parent molecule) [3, 8]: 98.71%
percent peak area at 250 nm, RRT 1.05 (PRX-3140b) [3, 8]: <0.03%
percent peak area at 250 nm, RRT 1.00 (purity of parent molecule) [3, 9]: 98.7%
percent peak area at 250 nm, RRT 1.05 (PRX-3140b) [3, 9]: < 0.03%
percent peak area at 250 nm, RRT 1.08 ([3]; Control (DI Water)): 0.12%
percent peak area at 250 nm, RRT 1.11 ([3]; Control (DI Water)): 0.04%
percent peak area at 250 nm, RRT 1.34 ([3]; Control (DI Water)): 0.17%
percent peak area at 250 nm, RRT 1.53 ([3]; Control (DI Water)): 0.42%
percent peak area at 250 nm, RRT 1.71 ([3]; Control (DI Water)): 0.23%
percent peak area at 250 nm, RRT 1.79 ([3]; Control (DI Water)): 0.11%
percent peak area at 250 nm, RRT 1.93 ([3]; Control (DI Water)): 0.06%
percent peak area at 250 nm, RRT 2.51 ([3]; Control (DI Water)): 0.06%
percent peak area at 250 nm, RRT 2.70 ([3]; Control (DI Water)): 0.18%
percent peak area at 250 nm, RRT 1.00 (purity of parent molecule) [3, 10]: 98.60%
percent peak area at 250 nm, RRT 1.05 (PRX-3140b) [3, 10]: <0.03%
percent peak area at 250 nm, RRT 1.00 (purity of parent molecule) [3, 11]: 98.6%
percent peak area at 250 nm, RRT 1.05 (PRX-3140b) [3, 11]: < 0.03%
percent peak area at 250 nm, RRT 1.00 (purity of parent molecule) ([3]; Control (DI Water)): 98.6%
percent peak area at 250 nm, RRT 0.78 (PRX-3140a) ([3]; H2O2 (3%)): 8.49%
percent peak area at 250 nm, RRT 0.82 ([3]; H2O2 (3%)): 0.10%
percent peak area at 250 nm, RRT 1.08 ([3]; H2O2 (3%)): 0.19%
percent peak area at 250 nm, RRT 1.27 ([3]; H2O2 (3%)): 0.21%
percent peak area at 250 nm, RRT 1.34 ([3]; H2O2 (3%)): 0.09%
percent peak area at 250 nm, RRT 1.42 ([3]; H2O2 (3%)): 0.32%
percent peak area at 250 nm, RRT 1.53 ([3]; H2O2 (3%)): 0.42%
percent peak area at 250 nm, RRT 1.79 ([3]; H2O2 (3%)): 0.19%
percent peak area at 250 nm, RRT 2.70 ([3]; H2O2 (3%)): 0.11%
percent peak area at 250 nm, RRT 1.00 (purity of parent molecule) [3, 12]: 80.57%
percent peak area at 250 nm, RRT 1.05 (PRX-3140b) [3, 12]: 9.06%
percent peak area at 250 nm, RRT 1.00 (purity of parent molecule) [3, 13]: 80.6%
percent peak area at 250 nm, RRT 1.05 (PRX-3140b) [3, 13]: 9.1%
percent peak area at 250 nm, RRT 1.00 (purity of parent molecule) ([3]; H2O2 (3%)): 80.6%
purity of the parent molecule PRX-3140 [4]: 29.6%
mean blood glucose level decrease compared to control values [5]: −19.5%
